Results on one compound are retold here after patent US11597911B2, “Expansion of populations of T cells by the use of modified serum free media” (Life Technologies Corporation, priority 2017, dated 2023).

Assay [1] concerns Naïve and Central Memory CD4+ T cells. The assay can be described thus: Expansion and cytokine production of sorted CD4+ T cell subsets in limited glucose:galactose media. In kind it is cell-based, human. The following applies: in the presence of low glucose; FIG. 21. An excerpt: Bulk CD4+ T cells were sorted into Tregs, Naïve, Tcm (central memory), and Tem (effector memory) subsets based on the markers CD25, CD45RA, CD62L, and CCR7. Based on FIG. 20, T cells of different subpopulations may be sorted through use of FACS. […] Expanded naïve CD4+ T cells preserve the naïve phenotype when grown in limited glucose, as witnessed through FACS analysis (see FIG. 22 and FIG. 23).
While good expansion of T cells can be achieved in media containing multiple ratios of glucose and galactose, ratios with limiting glucose can have a negative impact in interferon gamma production. There is evidence that interferon-gamma expression is regulated via GAPDH in T-cells (Chang, et al Cell. 2013 June 6; 153(6): 1239-1251) thus excessively limiting glycolysis during T cell expansion can impair IFN-γ production. […] Central memory T cells appear not to be effected by glucose level. […] Primary human CD4+ T cells from normal donors isolated via negative selection were obtained from UPenn Human Immunology Core Facility. Cells were separated by flow cytometric sorting into Naïve (CD45RA+/CD27+/CCR7+), and Central Memory (CD45RA−/CD27+/CCR7+), subsets. […] T cells were fed and counted on days 5, 7, 10 and 12 on a Beckman-Coulter Multisizer 3. […]

The next assay deals with Primary human T cells. The assay can be described thus: T cell expansion in serum-free medium with glucose, galactose or mixtures. The assay is classed as cell-based. The note with it: final sugar 6 g/L; lipid concentrate 1:100; CD3/CD28 beads; counted days 5-12; FIG. 3. An excerpt:
FIG. 3 is a graph depicting that galactose alone is suboptimal for human T cell expansion. Primary human T cells from normal donors were negatively isolated from PBMCs with DYNABEADS® UNTOUCHED™ Human T Cells kit. T cells (seeding density 1×10^6/mL) were activated with DYNABEADS® Human T-Expander CD3/CD28 at a ratio of 3 beads per T cell and cultured in serum-free medium supplemented with GIBCO™ Chemically Defined Lipid Concentrate (1:100) and either d-glucose, d-galactose or mixtures of glucose and galactose as indicated; final concentration of sugar was 6 g/L in all conditions. T cells were fed and counted on days 5, 7, 10 and 12 on a Beckman-Coulter ViCell analyzer. Cell expansion is expressed as cumulative viable T cells over time. Results are representative of at least 3 independent experiments.
Primary human T cells from normal donors were negatively isolated from PBMCs with DYNABEADS® UNTOUCHED™ Human T Cells kit. […] T cells were fed and counted on days 5, 7, 10 and 12 on a Beckman-Coulter ViCell analyzer. Cell expansion is expressed as cumulative viable T cells over time. […]

`O=C[C@H](O)[C@@H](O)[C@@H](O)[C@H](O)CO` [D-galactose]: the “expansion of naïve T cells” value in assay [1] is reported as “high rate of expansion”. The “in vitro T cell expansion (cumulative viable T cells over time)” value in the assay with Primary human T cells was “not sufficient to support optimal in vitro T cell expansion”.
